According to patent US8486900B2, “Method for preparing a Centella asiatica extract rich in madecassoside and in terminoloside” (Bayer Consumer Care AG, priority 2002, dated 2013):
“And” between values parts separate entries of the source, which are not always exact repeats. Equal values may be shown once.

What was measured:
human fibroblasts = assay: Cytotoxicity, Neutral Red assay on human fibroblasts; conditions: for Viability (24 h) / Viability (48 h): DMSO 1%
Method: A stock solution of the product was prepared beforehand in DMSO and then diluted in culture medium in order to obtain the various test solutions (final concentration of DMSO: 1%). A broad range of 8 concentrations [from 5 to 1000 μg/ml] was initially studied in order to close in the maximum NonCytotoxic Dose (NCD).
A stock solution of the product was prepared beforehand in DMSO and then diluted in culture medium in order to obtain the various test solutions (final concentration of the DMSO: 1%). A broad range of 8 concentrations (between […]) was studied on human fibroblasts in order to close in the maximum NonCytotoxic Dose (NCD).

MMP-1 = assay: TNF-α-induced production of MMP-1 by human fibroblasts in collagen gel (dermis equivalent); assay type: cell-based; conditions: for Production of MMP-1, (+) TNF-α, mean: TNF-α 10 ng/ml, 24 h pretreatment + 24 h; for decrease in the amount of MMP-1: relative to (+)TNF-α control
Method: (§1) An in vitro experimental approach based on measuring the amounts of MMP-1 and of TIMP-1 released into the culture media by human fibroblasts cultured in the absence and in the presence of the products, and stimulated with TNF-α, is proposed. The study was carried out on human fibroblast cultures established from skin biopsies according to the explant method. The fibroblasts are cultured, according to the techniques used in the laboratory, in DMEM medium (sold under the name Invitrogen™ by the company Life Technologies) supplemented with fetal calf serum (10% FCS) and with antibiotics, at […] in a humid air-CO2 (95%-5%) atmosphere.
Human dermal fibroblasts cultured as a monolayer are detached from their support by trypsinization and suspended in complete medium. After counting, the cell suspension is diluted in culture medium and added, in defined proportions, to a mixture of concentrated culture medium (1.76×DMEM), fetal calf serum (FCS) and type I collagen (acetic acid extract from rat tail tendons). The mixture is then poured, under cold conditions, into 24-well plates in a proportion of 1 ml/well. The dermous equivalents are then placed at 37° C. and incubated for 72 h, in an air-CO2 (95%/5%) atmosphere. The gels gradually contract under the action of the fibroblasts.
72 hours after seeding, the culture medium is removed and replaced with new medium containing the various products being studied (“preventative” treatment). The gels are returned to the incubator at 37° C. and incubated, for 24 hours, in an air-CO2 (95%/5%) atmosphere.
(§2) After incubation, the plates are emptied. The cultures are rinsed and then exposed to a solution of TNF-α (10 ng/ml) in the absence (control cultures) or in the presence (treated cultures) of the various concentrations of each product being studied. After the addition of TNF-α, the cultures are returned to the incubator at 37° C. for 24 h. At the end of incubation, the media are removed, centrifuged and aliquoted for assaying of MMP-1 and of TIMP-1.
(§3) The study was carried out on human fibroblasts cultured in a three-dimensional gel of collagen (dermous equivalent).
1. Treatment of cells for 24 h, before induction of MMP-1 with TNF-α.
2. Induction of MMP-1 by the addition of TNF-α (10 ng/ml). Incubation for 24 h.
(§4) 3. Measurement of cell viability and of the amounts of MMP-1 in the control and treated culture supernatants.

TIMP-1 = assay: Production of TIMP-1 by human fibroblasts in collagen gel stimulated with TNF-α; assay type: cell-based; conditions: for Production of TIMP-1, (+) TNF-α, mean: TNF-α 10 ng/ml
Method: as §1, §2
The amount of TIMP-1, an inhibitor specific for MMP-1, was also measured in the supernatants of the cultures treated with asiaticoside or the madecassoside-terminoloside mixture.

[1] = system: human fibroblasts cultured in a three-dimensional gel of collagen; assay: Cell viability (Neutral Red assay) of collagen gel fibroblast cultures after TNF-α; assay type: cell-based; conditions: TNF-α 10 ng/ml, 0.2-1.0 mg/ml
Method: as §3, §4
Cell Viability (Neutral Red Assay)

NFκB = assay: TNF-α-induced activation of NFκB in nuclei of normal human fibroblasts; assay type: cell-based; conditions: for NFκB (AU), mean / NFκB (AU), single values / NFκB, % control: TNF-α 25 ng/ml; for NFκB, % control: control with TNF-α = 100
Method: This study makes it possible to evaluate the effects of the mixture according to the invention on the activation of NFκB, using a very sensitive specific method based on measuring the binding of the transcription factor NFκB to the consensus oligonucleotide sequence immobilized on a plastic support. Bound NFκB is secondarily recognized by a specific anti-NFκB antibody. This assay was carried out on isolated nuclei of normal human fibroblasts. The culture medium is DMEM, which comprises: • 2 mM L-glutamine • 50 IU/ml penicillin, 50 μg/ml streptomycin • 10% (v/v) fetal calf serum for the preculture and then a switch to serum-free medium The fibroblasts were precultured in 175 cm^2 flasks in DMEM medium containing 10 vol % of FCS until confluency, and the culture medium was then replaced with serum-free DMEM medium. The cells were then cultured in the presence of the products to be assayed or of references, for 1 hour. The proinflammatory agent […] (TNF-α, at 25 ng/ml final concentration; Sigma T0157) was then added to the culture medium and the cells were again incubated for 1 hour at 37° C. and 5% CO2. After incubation, the cells were harvested on ice and the cell nuclei of the various samples were isolated using the Sigma NUC-101 kit according to the protocol recommended by the supplier. The amount of proteins of each nuclear extract was determined using the Biorad 500-0116 assay kit. The amount of activated NFκB bound to the specific oligonucleotide was measured on the same amount of nuclear extract of each sample, i.e. 50 μl, diluted 50/50, after visualization using a specific anti-NFκB antibody. […] AU represents the arbitrary units of NFκB in the extract; this is the difference between the measured value and the background noise.

IL-8 = assay: Effect of interferon-γ on production and release of IL-8 by normal human keratinocytes; assay type: cell-based
Method: (§5) The study is carried out on normal human keratinocytes. The cells are first treated with 4 concentrations of interferon-gamma (IFN-γ), for 24 hours.
(§6) Next, the inflammation mediators are measured in the control cultures and cultures treated with IFN-γ, by assaying IL-8 and TNF-α in the culture supernatants and by assaying cell proteins. The method of measurement used is the Coomassie blue test; it is a standardized method.
(§7) The effects of interferon-gamma (IFN-γ) on the production and release of epidermal cytokines was studied on normal human keratinocytes (strain K02-1H4). 4 concentrations of IFN-g were tested:
The effects of IFN-γ on the production and release of IL-8 were studied under the same experimental conditions.

TNF-α = assay: Effect of interferon-γ on production of TNF-α by normal human keratinocytes; assay type: cell-based; conditions: for TNF-α, mean: normal human keratinocytes, 24 h
Method: as §5, §6

IL-1α = assay: Effect of interferon-γ on intracellular IL-1α production by normal human keratinocytes; assay type: cell-based; design: multiplication of the basal amount of IL-1α: dose or concentration left out as unconfirmed
From the text: The effects of interferon-gamma (IFN-γ) on the production and release of epidermal cytokines was studied on normal human keratinocytes (strain K02-1H4).

PGE-2 = assay: Effect of interferon-γ on release of PGE-2 by normal human keratinocytes; assay type: cell-based
Method: as §7
The effects of IFN-γ on the production and release of PGE-2 was studied under the same experimental conditions as previously described (Table 31).

[2] = Immunomodulatory activity
[3] = K02-1H4, interferon-γ 1000 U/ml
[4] = K02-1H4, interferon-γ 2000 U/ml

C[C@H]1[C@H](C)CC[C@]2(C(=O)O[C@@H]3O[C@H](CO[C@@H]4O[C@H](CO)[C@@H](O[C@@H]5O[C@H](C)[C@H](O)[C@@H](O)[C@H]5O)[C@H](O)[C@H]4O)[C@@H](O)[C@H](O)[C@H]3O)CC[C@]3(C)C(=CC[C@@H]4[C@@]5(C)C[C@@H](O)[C@H](O)[C@@](C)(CO)[C@@H]5CC[C@]43C)[C@H]12 [Asiaticoside, asiaticoside]
Maximum NonCytotoxic Dose (NCD) (human fibroblasts): 1 mg/mL
decrease of cell viability (human fibroblasts; 48 h, 1 mg/ml): 12%
Viability (24 h) (human fibroblasts; 10): 98%
Viability (24 h) (human fibroblasts; 25): 101%
Viability (24 h) (human fibroblasts; 50): 101%
Viability (24 h) (human fibroblasts; 100): 101%
Viability (24 h) (human fibroblasts; 250): 101%
Viability (24 h) (human fibroblasts; 500): 97%
Viability (24 h) (human fibroblasts; 1000): 93%
Viability (48 h) (human fibroblasts; 48 h, 10): 108%
Viability (48 h) (human fibroblasts; 48 h, 25): 107%
Viability (48 h) (human fibroblasts; 48 h, 50): 106%
Viability (48 h) (human fibroblasts; 48 h, 75): 104%
Viability (48 h) (human fibroblasts; 48 h, 100): 102%
Viability (48 h) (human fibroblasts; 48 h, 250): 99%
Viability (48 h) (human fibroblasts; 48 h, 500): 93%
Viability (48 h) (human fibroblasts; 48 h, 750): 90%
Viability (48 h) (human fibroblasts; 48 h, 1000): 88%
cytotoxic effect (human fibroblasts; contact for 24 h, 5 to 1000 μg/ml): no significant cytotoxic effect
nontoxic concentrations (human fibroblasts; incubation for 48 h): below 1 mg/ml
Production of MMP-1, (+) TNF-α, mean (MMP-1; 0.2 mg/ml): 9.96 ng MMP-1/ml
Production of MMP-1, (+) TNF-α, mean (MMP-1; 0.5 mg/ml): 6.18 ng MMP-1/ml
Production of MMP-1, (+) TNF-α, mean (MMP-1; 1.0 mg/ml): 3.40 ng MMP-1/ml
decrease in the amount of MMP-1 (MMP-1; C1 = 0.2 mg/ml): 18%
decrease in the amount of MMP-1 (MMP-1; C2 = 0.5 mg/ml): 49%
decrease in the amount of MMP-1 (MMP-1; C3 = 1.0 mg/ml): 72%
Production of TIMP-1, (+) TNF-α, mean (TIMP-1; 0.2 mg/ml): 51.01 ng TIMP-1/ml
Production of TIMP-1, (+) TNF-α, mean (TIMP-1; 0.5 mg/ml): 50.36 ng TIMP-1/ml
Production of TIMP-1, (+) TNF-α, mean (TIMP-1; 1.0 mg/ml): 48.82 ng TIMP-1/ml
effect with respect to the production of TIMP-1 (TIMP-1; within the range of concentrations tested (0.2-1.0 mg/ml)): no effect
viability of the treated cultures after treatment with TNF-α [1]: not modified
solubility (Solubility): organosoluble

C[C@@H]1C[C@H]2[C@@H]3CCC4=CC(=O)C=C[C@]4(C)[C@@]3(F)[C@@H](O)C[C@]2(C)[C@@]1(O)C(=O)CO [dexamethasone, Dexamethasone]
nuclear translocation of NFκB induced by TNF-α (NFκB; 0.1 μM): did not inhibit
NFκB (AU), mean (NFκB; 0.1 μM dexamethasone): 9.46 AU
NFκB (AU), single values (NFκB; 0.1 μM dexamethasone): 10.94 AU and 7.3 AU and 9.90 AU and 9.67 AU
NFκB, % control (NFκB; 0.1 μM dexamethasone): 99%

O=C(O)c1cc(/N=N/c2ccc(S(=O)(=O)Nc3ccccn3)cc2)ccc1O [sulfasalazine, Sulfasalazine]
NFκB (AU), mean (NFκB; 5 mM sulfasalazine): 4.19 AU
NFκB (AU), single values (NFκB; 5 mM sulfasalazine): 4.93 AU and 4.01 AU and 2.88 AU
NFκB, % control (NFκB; 5 mM sulfasalazine): 44%

Interferon-γ: interferon-gamma used as irritative agent to stimulate keratinocytes
multiplication of the basal amount of IL-8 (IL-8; Example 8, interferon 1000 U/ml): 26 fold
multiplication of the basal amount of IL-8 (IL-8; Example 8, interferon 2000 U/ml): 38 fold
IL-8, mean (IL-8; Example 8, normal human keratinocytes, 24 h, interferon-γ 100 U/ml): 0.980 pg/μg proteins
IL-8, mean (IL-8; Example 8, normal human keratinocytes, 24 h, interferon-γ 500 U/ml): 1.301 pg/μg proteins
IL-8, mean (IL-8; Example 8, normal human keratinocytes, 24 h, interferon-γ 1000 U/ml): 1.991 pg/μg proteins
IL-8, mean (IL-8; Example 8, normal human keratinocytes, 24 h, interferon-γ 2000 U/ml): 2.917 pg/μg proteins
IL-8, mean (IL-8; Example 12, K02-1H4, interferon-γ 100 U/ml): 0.252 pg/μg proteins
IL-8, mean (IL-8; Example 12, K02-1H4, interferon-γ 500 U/ml): 0.350 pg/μg proteins
IL-8, mean (IL-8; Example 12, K02-1H4, interferon-γ 1000 U/ml): 0.516 pg/μg proteins
IL-8, mean (IL-8; Example 12, K02-1H4, interferon-γ 2000 U/ml): 0.671 pg/μg proteins
multiplication of the basal amount of TNF-α (TNF-α; interferon 1000 U/ml): 3.3 fold
multiplication of the basal amount of TNF-α (TNF-α; interferon 2000 U/ml): 4.5 fold
TNF-α, mean (TNF-α; interferon-γ 100 U/ml): 3.198 pg/μg proteins
TNF-α, mean (TNF-α; interferon-γ 500 U/ml): 8.605 pg/μg proteins
TNF-α, mean (TNF-α; interferon-γ 1000 U/ml): 10.773 pg/μg proteins
TNF-α, mean (TNF-α; interferon-γ 2000 U/ml): 14.545 pg/μg proteins
multiplication of the basal amount of IL-1α (IL-1α; IFN-γ 1000): 2.6 fold
multiplication of the basal amount of IL-1α (IL-1α; IFN-γ 2000): 3.8 fold
IL-1α (intracellular), mean (IL-1α; K02-1H4, interferon-γ 100 U/ml): 6.80 pg/μg proteins
IL-1α (intracellular), mean (IL-1α; K02-1H4, interferon-γ 500 U/ml): 8.29 pg/μg proteins
IL-1α (intracellular), mean (IL-1α; [3]): 11.21 pg/μg proteins
IL-1α (intracellular), mean (IL-1α; [4]): 12.48 pg/μg proteins
stimulation of the production and release of PGE-2 (PGE-2; 100 to 2000 U/ml): not capable of stimulating
Extracellular PGE-2, mean (PGE-2; K02-1H4, interferon-γ 100 U/ml): 3.60 pg/μg proteins
Extracellular PGE-2, mean (PGE-2; K02-1H4, interferon-γ 500 U/ml): 3.45 pg/μg proteins
Extracellular PGE-2, mean (PGE-2; [3]): 3.48 pg/μg proteins
Extracellular PGE-2, mean (PGE-2; [4]): 3.80 pg/μg proteins

terminolic acid
immunomodulatory activity [2]: no immunomodulatory activity
